Test results published in publication PMC6121260, “Sulfated Metabolites of Flavonolignans and 2,3-Dehydroflavonolignans: Preparation and Properties” (International Journal of Molecular Sciences, 2018).
Marks after values point to notes of the source that are not given here.

How the values were obtained:
[1] = DPPH radical scavenging; format: biochemical; conditions: mean ± standard error
Procedure: (§1) N,N-dimethyl-p-phenylenediamine (DMPD) and 2,2′-azino-bis(3-ethylbenzothiazolin-6-sulfonic acid (ABTS) cation radical scavenging and ferric reducing antioxidant power (FRAP) were measured using kits from Bioquochem (Llanera-Asturias, Spain). Antiradical activity by 2,2-diphenyl-1-picrylhydrazyl radical scavenging assay, reducing capacity using Folin–Ciocalteau reagent (FCR), and anti-lipoperoxidant activity using inhibition of lipid peroxidation of rat liver microsomes induced by tert-butyl hydroperoxide were determined as described previously with modifications described in detail in our previous research.

[2] = Ferric reducing antioxidant power (FRAP); format: biochemical; conditions: equivalents of Fe^2+, mean ± standard error
Procedure: as §1

[3] = Folin–Ciocalteu reagent (FCR) reduction; format: biochemical; conditions: Folin–Ciocalteau reagent reduction, gallic acid equivalents, mean ± standard error
Procedure: as §1

[4] = ABTS+ cation radical scavenging; format: biochemical; conditions: vitamin C equivalents, mean ± standard error
Procedure: as §1

[5] = Log p, octan-1-ol / phosphate buffer partition; format: physicochemical; conditions: octan-1-ol / 6.6 mM phosphate buffer pH 7.4, 25 °C
Procedure: The hydrophobicity of the compounds was determined by measuring their partition coefficient P in a mixture of two immiscible phases—octan-1-ol and 6.6 mM phosphate buffer pH 7.4. Stock solutions (0.5 mM) were prepared in octan-1-ol (parent compounds) and in the buffer (sulfated compounds). The stock solutions (150 µL) were mixed with 150 µL of the immiscible phase in microcentrifuge tubes (1.5 mL); shaken for 2 h (750 rpm, 25 °C); and after incubation, the phases were separated. Water phases were diluted 1:1 with the mobile phase (acetonitrile/deionized water/HCO2H, 5:95:0.1; v/v) and analyzed by HPLC using the gradient G3 (see Section 3.1.3). Octan-1-ol phases were evaporated in the stream of air (70 °C), then dissolved in 10 µL of DMSO, and mixed with 90 µL of mobile phase and analyzed by HPLC. The log p values were calculated from the respective peak heights (h) using the formula log p = log(hoctanol/hbuffer). For comparison, log p values were calculated using the Molinspiration property engine v2016.10 (http://www.molinspiration.com, Molinspiration Cheminformatics, Slovensky Grob, Slovakia) (access on 26th October 2017).

[6] = DMPD+ cation radical scavenging; format: biochemical; conditions: vitamin C equivalents, mean ± standard error
Procedure: as §1

[7] = Inhibition of lipoperoxidation (Lpx) induced by tert-butyl hydroperoxide; format: biochemical; conditions: rat liver microsomal membranes, mean ± standard error
Procedure: as §1

[8] = system: NAD(P)/quinone oxidoreductase 1 (NQO1) activity in Hepa1c1c7 cells; test: NQO1 activity in Hepa1c1c7 cells (Nrf2 pathway); format: cell-based, murine; conditions: 48 h; for NQO1 activity, fold versus control: 50 µM
Procedure: The murine hepatoma Hepa1c1c7 cell line (ECACC, Salisbury, UK) was cultured in minimum essential medium α (M0894, Sigma-Aldrich, St. Louis, MO, USA), supplemented with 2.2 g/L NaHCO3 and 10% heat- and charcoal-treated fetal bovine serum (Biochrom, Berlin, Germany), and maintained at 37 °C in a humidified atmosphere containing 5% CO2. For all experiments, cells were seeded onto 96-well plates at 1 × 10^4 cells/well. After 24 h of stabilization, cells were treated for 48 h with 0.1% (v/v) DMSO (negative control), 2.5 µM sulforaphane (positive control; Sigma-Aldrich, St. Louis, MO, USA), or with the tested compounds in fresh culture medium. After the treatment, the activity of NQO1 was determined spectrophotometrically as described previously. Cells were washed with phosphate-buffered saline (PBS) and lysed with 75 µL of digitonin solution (0.8 g/L digitonin, 2 mM EDTA, pH 7.8) by shaking on an orbital shaker for 20 min at room temperature. A part of the cell lysate (20 µL) was used to determine the protein content. The remaining lysate (55 µL) was mixed with 200 µL of 0.5 M Tris-Cl buffer containing 10% (w/v) bovine serum albumin, 1.5% (v/v) Tween-20, 7.5 mM FAD, 150 mM glucose-6-phosphate, 2 U/mL glucose-6-phosphate dehydrogenase (Roche Diagnostics, Mannheim, Germany), 50 mM NADP^+, 25 mM menadione, and 0.7 mM 3-(4,5-dimethylthiazol-2-yl)-2,5-diphenyltetrazolium bromide (MTT). The mixture was incubated for 5 min at room temperature and the reaction was stopped with 50 µL of dicumarol suspension (0.3 mM dicumarol, 5 mM potassium phosphate, 0.5% (v/v) DMSO). The absorbance of the reduced MTT corresponding to the activity of NQO1 was measured at 610 nm on a spectrophotometric plate reader. The absorbance values were normalized to the protein content and used for the calculation of fold changes versus the control.

[9] = target: T1, aryl sulfotransferase from rat liver (AST IV) (Rattus norvegicus, UniProt P17988); test: Substrate specificity of AST IV (whole E. coli cells, p-NPS donor); format: in vitro ADME; parameters: key: +: isolated sulfated product(s) and/or release of p-nitrophenol (p-NP); –: no formation of p-NP and/or isolated sulfated products; conditions: whole E. coli cells expressing AST IV, 37 °C, 72 h
T1 construct: made in house; host or cells: E. coli BL21 (DE3) Gold (whole cells used as catalyst)
Procedure: The plasmid bearing astIV gene was kindly provided by Prof. L. Elling, RWTH Aachen, Germany. The enzyme was expressed in E. coli BL21 (DE3) Gold as described, with modifications reported in our previous work. Whole E. coli cells producing the enzyme, freshly prepared according to the literature, were employed in the biotransformation experiments as a catalyst.
Silybin, silybin A, silybin B, silychristin, and silydianin (separately, each 50 mg, 0.104 mmol) and p-nitrophenyl sulfate (p-NPS, 35 mg, 0.136 mmol; Sigma-Aldrich, St. Louis, MO, USA) were dissolved in 3 mL DMSO, and 2 g (wet based) of whole cells expressing AST IV resuspended in K-phosphate buffer (pH 7.5, 17 mL) were added. The reaction mixture was incubated on a rotary shaker at 37 °C for 24 h. The cells were then removed by centrifugation (30 min, 5000 rpm, 5404 R Eppendorf, Germany), a new portion of fresh cells (2 g in 15 mL, wet based, resuspended in K-phosphate buffer) were added to the supernatant and incubated for 24 h. This step was repeated once more with a total reaction time of 72 h. The reaction was monitored by HPLC and after 72 h, the reaction mixtures, containing the sulfated product(s), were purified by preparative HPLC employing Asahipak GS-310 20F (Shodex, Tokyo, Japan) column with isocratic elution with 100% methanol. The fraction containing the putative sulfated product(s) was evaporated, dissolved in 1 mL of 80% methanol, and loaded onto a Sephadex LH-20 column (15 g dry weight, 12 mm i.d.) packed and eluted with 80% methanol. Only one sulfated product was obtained; silybin B 20-O-sulfate (14.5 mg, 0.03 mmol, yield 25%), whose identity was confirmed by comparison with previously published data.

T1 sequence (P17988 whole entry): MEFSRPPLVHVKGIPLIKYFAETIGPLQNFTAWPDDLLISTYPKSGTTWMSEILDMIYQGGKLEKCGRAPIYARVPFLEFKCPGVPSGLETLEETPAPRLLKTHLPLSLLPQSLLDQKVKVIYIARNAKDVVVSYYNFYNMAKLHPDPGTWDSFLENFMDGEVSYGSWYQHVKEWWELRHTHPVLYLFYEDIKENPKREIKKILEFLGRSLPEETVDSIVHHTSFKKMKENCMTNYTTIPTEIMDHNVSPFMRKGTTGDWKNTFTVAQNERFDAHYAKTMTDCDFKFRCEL

Compound	IC50 [1] [µM]	FRAP [Fe^2+] [2]	FCR [GAE] [3]	FCR [GAE] ([3]; listed as silybin sulfates B)	ABTS^+ [CE] [4]	logP at 2 h [5]	DMPD^+ [CE] [6]	IC50 [7] [µM]	NQO1 activity, fold versus control [8] [fold]	FCR [GAE] ([3]; listed as 2,3-dehydrosilychristin)	IC50 ([1]; listed as 2,3-dehydrosilychristin monosulfate) [µM]	NQO1 activity, fold increase compared with the control ([8]; 2.5 µM, positive control) [fold]	FRAP [Fe^2+] ([2]; listed as 2,3-dehydrosilybin-7,20-di-O-sulfate)	DMPD^+ [CE] ([6]; listed as 2,3-dehydrosilybin disulfate)	Formation of p-NP [9]	FCR [GAE] ([3]; listed as silybin sulfates A)	IC50 ([1]; listed as 2,3-dehydrosilybin) [µM]	FRAP [Fe^2+] ([2]; listed as 2,3-dehydrosilybin)	FCR [GAE] ([3]; listed as 2,3-dehydrosilybin)
COc1cc([C@@H]2Oc3cc([C@H]4Oc5cc(O)cc(O)c5C(=O)[C@@H]4O)ccc3O[C@H]2CO)ccc1OS(=O)(=O)O [Silybin B 20-O-sulfate]	> 2500	0.01 ± 0.00 ^p Fe^2+	0.16 ± 0.02 GAE	0.16	0.04 ± 0.00 CE	-2.34	0.99 ± 0.01 ^n CE	> 1000	0.9	–	–	–	–	–	–	–	–	–	–
COc1cc(C2Oc3c(O)cc(-c4oc5cc(O)cc(O)c5c(=O)c4O)cc3C2CO)ccc1O (stereo not shown) [2,3-Dehydrosilychristin, reference compound]	8.6 ± 0.8	0.28 ± 0.01 Fe^2+	1.58 ± 0.04 ^l GAE	–	0.93 ± 0.03 ^l CE	> 3	0.97 ± 0.02 ^n CE	14.6 ± 0.4	–	1.58	–	–	–	–	–	–	–	–	–
COc1cc(C2Oc3c(O)cc(-c4oc5cc(O)cc(O)c5c(=O)c4O)cc3C2CO)ccc1OS(=O)(=O)O (stereo not shown) [2,3-Dehydro-silychristin-19-O-sulfate, 2,3-Dehydrosilychristin-19-O-sulfate]	7.9 ± 0.3	1.44 ± 0.04 ^r Fe^2+	1.44 ± 0.01 ^l GAE	–	0.62 ± 0.02 ^n CE	-2.24	1.02 ± 0.04 ^n CE	12 ± 1.8	1.4	–	8	–	–	–	–	–	–	–	–
C[S+]([O-])CCCCN=C=S (stereo not shown) [sulforaphane, reference compound]	–	–	–	–	–	–	–	–	–	–	–	4.3	–	–	–	–	–	–	–
COc1cc(C2Oc3cc(-c4oc5cc(OS(=O)(=O)O)cc(O)c5c(=O)c4O)ccc3OC2CO)ccc1OS(=O)(=O)O (stereo not shown) [2,3-Dehydrosilybin-7,20-di-O-sulfate]	106 ± 4	1.61 ± 0.04 Fe^2+	0.95 ± 0.01 ^m GAE	–	0.55 ± 0.03 CE	< -3	1.90 ± 0.10 CE	90.7 ± 3.3	1.2	–	–	–	1.61	1.90	–	–	–	–	–
COc1cc(C2Oc3cc(-c4oc5cc(O)cc(O)c5c(=O)c4O)ccc3OC2CO)ccc1OS(=O)(=O)O (stereo not shown) [2,3-Dehydrosilybin-20-O-sulfate]	14.1 ± 0.5	1.46 ± 0.03 ^r Fe^2+	1.03 ± 0.01 ^m GAE	–	0.71 ± 0.03 ^j CE	-2.16	0.97 ± 0.02 ^n CE	13.7 ± 0.4	1.3	–	–	–	–	–	–	–	–	–	–
Cc1c(C)c2c(c(C)c1O)CCC(C)(C(=O)O)O2 (stereo not shown) [Trolox, reference compound]	2.9 ± 0.1	–	0.33 ± 0.00 ^k GAE	–	–	–	–	32.7 ± 2.4	–	–	–	–	–	–	–	–	–	–	–
COc1cc([C@@H]2[C@H]3CO[C@@]4(O)C(=O)[C@@H]2C=C([C@H]2Oc5cc(O)cc(O)c5C(=O)[C@@H]2O)[C@@H]34)ccc1O [Silydianin]	–	–	–	–	–	–	–	–	–	–	–	–	–	–	+ ^a	–	–	–	–
COc1cc(C2Oc3c(O)cc([C@H]4Oc5cc(O)cc(O)c5C(=O)[C@@H]4O)cc3C2CO)ccc1OS(=O)(=O)O (stereo partly shown) [Silychristin-19-O-sulfate]	587 ± 11	0.05 ± 0.01 ^q Fe^2+	0.80 ± 0.11 ^m GAE	–	0.62 ± 0.03 ^k CE	-2.25	1.56 ± 0.08^o CE	134 ± 2	1.3	–	–	–	–	–	–	–	–	–	–
COc1cc([C@H]2Oc3cc([C@H]4Oc5cc(O)cc(O)c5C(=O)[C@@H]4O)ccc3O[C@@H]2CO)ccc1OS(=O)(=O)O [Silybin A 20-O-sulfate]	> 2500	0.01 ± 0.00 ^p Fe^2+	0.08 ± 0.01 GAE	–	0.02 ± 0.00 CE	-1.65	0.98 ± 0.01 ^n CE	> 1000	1.2	–	–	–	–	–	–	0.08	–	–	–
COc1cc(C2Oc3cc(-c4oc5cc(O)cc(O)c5c(=O)c4O)ccc3OC2CO)ccc1O (stereo not shown) [2,3-Dehydrosilybin, reference compound]	13.3 ± 0.6	0.81 ± 0.02 Fe^2+	1.51 ± 0.09 ^l GAE	–	0.77 ± 0.01 ^j CE	> 3	1.02 ± 0.02 ^n CE	10.4 ± 0.4	–	–	–	–	–	–	–	–	13 to 14	0.81	1.50
